Laboratory results as given in paper PMC3297363 (Journal of Medicinal Chemistry, 2012).
Where two headings read alike, the source gives them in different places. Each block holds one compound with its values, some of them ahead of it.

Legend:
[1] = tested on: 3D7 strain of P. falciparum; test: In vitro antimalarial activity versus 3D7 P. falciparum; type: cell-based, Plasmodium falciparum
[2] = tested on: TM90C2B strain of P. falciparum; test: In vitro antimalarial activity versus atovaquone resistant TM90C2B; type: cell-based; conditions: Plasmodium falciparum, read-out: IC50 in TM90C2B strain
[3] = target: T1, PfNDH2 (Plasmodium falciparum, UniProt Q8I302); type: biochemical; conditions: PfNDH2 enzyme
T1 sequence (Q8I302 1-533): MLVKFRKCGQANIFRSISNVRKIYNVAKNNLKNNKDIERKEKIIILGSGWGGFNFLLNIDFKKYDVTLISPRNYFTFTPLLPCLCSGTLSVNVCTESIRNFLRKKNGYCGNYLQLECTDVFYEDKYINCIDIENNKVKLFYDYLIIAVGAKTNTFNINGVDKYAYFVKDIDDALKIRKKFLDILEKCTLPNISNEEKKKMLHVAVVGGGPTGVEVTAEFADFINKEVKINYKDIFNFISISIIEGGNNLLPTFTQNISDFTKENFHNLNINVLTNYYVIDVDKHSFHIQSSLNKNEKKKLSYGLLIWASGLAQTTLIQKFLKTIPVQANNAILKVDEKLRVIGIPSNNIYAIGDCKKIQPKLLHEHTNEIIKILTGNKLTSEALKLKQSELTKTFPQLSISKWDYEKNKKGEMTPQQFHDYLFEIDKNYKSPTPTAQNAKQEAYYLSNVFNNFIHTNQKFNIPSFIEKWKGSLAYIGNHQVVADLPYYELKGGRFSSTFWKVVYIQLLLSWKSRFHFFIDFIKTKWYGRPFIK

IC50 ([1]; read-out: IC50 (nM) 3D7 ± SD, 3D7 strain of P. falciparum, in vitro): 37 nM
Compound: COc1ccc(Cc2ccc(-c3[nH]c4ccccc4c(=O)c3C)cc2)cc1 [6g]

IC50 ([1]; Plasmodium falciparum, 3D7, read-out: IC50 (nM) 3D7 ± SD, 3D7 strain of P. falciparum, in vitro): > 350 nM
Compound: COc1cccc2[nH]c(-c3ccc(Cc4ccc(OC(F)(F)F)cc4)cc3)c(C)c(=O)c12 [6m]

Compound: O=C1C(O)=C([C@H]2CC[C@H](c3ccc(Cl)cc3)CC2)C(=O)c2ccccc21 [atovaquone]
IC50 [2]: 12000 nM

IC50 (nM) PfNDH2 [3]: shows no PfNDH2
Compound: O=c1c(-c2ccc(Oc3ccc(OC(F)(F)F)cc3)cc2)c(CO)[nH]c2ccccc12 [compound 25]
